# What was measured:
# [1] = biological target: Matrix metalloproteinase-9 (Homo sapiens, UniProt P14780); assay: Inhibition of human recombinant matrix metalloprotease 9
# [2] = biological target: T1, Disintegrin and metalloproteinase domain-containing protein 17 (Homo sapiens, UniProt P78536); assay: Inhibition of heparin-binding HB-EGF shedding
# [3] = biological target: Stromelysin-1 (Homo sapiens, UniProt P08254); assay: Inhibition of human recombinant matrix metalloprotease 3
# [4] = biological target: T2, Interstitial collagenase (Homo sapiens, UniProt P03956); assay: Inhibition of human recombinant matrix metalloprotease 1
# T2 sequence (P03956 whole entry): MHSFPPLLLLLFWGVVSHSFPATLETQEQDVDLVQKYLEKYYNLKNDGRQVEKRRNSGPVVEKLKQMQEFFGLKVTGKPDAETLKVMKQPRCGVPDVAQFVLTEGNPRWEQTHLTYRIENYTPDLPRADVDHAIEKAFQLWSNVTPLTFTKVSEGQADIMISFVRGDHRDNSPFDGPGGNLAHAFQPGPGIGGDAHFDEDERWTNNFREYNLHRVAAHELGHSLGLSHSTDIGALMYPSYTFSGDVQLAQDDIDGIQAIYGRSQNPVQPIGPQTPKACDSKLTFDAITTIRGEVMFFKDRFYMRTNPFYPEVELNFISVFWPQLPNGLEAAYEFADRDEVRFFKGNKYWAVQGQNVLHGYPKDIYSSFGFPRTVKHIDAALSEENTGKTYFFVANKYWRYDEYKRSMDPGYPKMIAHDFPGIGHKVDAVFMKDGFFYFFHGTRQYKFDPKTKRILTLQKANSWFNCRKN
# [5] = biological target: T1, Disintegrin and metalloproteinase domain-containing protein 17; assay: Inhibition of human tumor necrosis factor alpha converting enzyme
# Chain of Stromelysin-1 (P08254 whole entry): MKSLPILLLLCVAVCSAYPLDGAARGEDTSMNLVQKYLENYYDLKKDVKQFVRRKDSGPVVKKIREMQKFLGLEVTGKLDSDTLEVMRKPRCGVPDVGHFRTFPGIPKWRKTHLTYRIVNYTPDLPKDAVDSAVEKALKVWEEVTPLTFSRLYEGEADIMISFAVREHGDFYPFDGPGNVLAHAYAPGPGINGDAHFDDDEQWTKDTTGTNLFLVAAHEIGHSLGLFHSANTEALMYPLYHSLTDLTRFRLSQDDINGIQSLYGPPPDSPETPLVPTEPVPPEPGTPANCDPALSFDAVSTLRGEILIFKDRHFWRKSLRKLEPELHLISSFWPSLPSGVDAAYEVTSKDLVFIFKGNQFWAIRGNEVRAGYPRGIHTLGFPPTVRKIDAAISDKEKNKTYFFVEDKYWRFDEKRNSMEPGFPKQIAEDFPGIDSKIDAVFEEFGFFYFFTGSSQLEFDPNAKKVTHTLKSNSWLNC
# T1 sequence (P78536 whole entry, the tested form may be a part): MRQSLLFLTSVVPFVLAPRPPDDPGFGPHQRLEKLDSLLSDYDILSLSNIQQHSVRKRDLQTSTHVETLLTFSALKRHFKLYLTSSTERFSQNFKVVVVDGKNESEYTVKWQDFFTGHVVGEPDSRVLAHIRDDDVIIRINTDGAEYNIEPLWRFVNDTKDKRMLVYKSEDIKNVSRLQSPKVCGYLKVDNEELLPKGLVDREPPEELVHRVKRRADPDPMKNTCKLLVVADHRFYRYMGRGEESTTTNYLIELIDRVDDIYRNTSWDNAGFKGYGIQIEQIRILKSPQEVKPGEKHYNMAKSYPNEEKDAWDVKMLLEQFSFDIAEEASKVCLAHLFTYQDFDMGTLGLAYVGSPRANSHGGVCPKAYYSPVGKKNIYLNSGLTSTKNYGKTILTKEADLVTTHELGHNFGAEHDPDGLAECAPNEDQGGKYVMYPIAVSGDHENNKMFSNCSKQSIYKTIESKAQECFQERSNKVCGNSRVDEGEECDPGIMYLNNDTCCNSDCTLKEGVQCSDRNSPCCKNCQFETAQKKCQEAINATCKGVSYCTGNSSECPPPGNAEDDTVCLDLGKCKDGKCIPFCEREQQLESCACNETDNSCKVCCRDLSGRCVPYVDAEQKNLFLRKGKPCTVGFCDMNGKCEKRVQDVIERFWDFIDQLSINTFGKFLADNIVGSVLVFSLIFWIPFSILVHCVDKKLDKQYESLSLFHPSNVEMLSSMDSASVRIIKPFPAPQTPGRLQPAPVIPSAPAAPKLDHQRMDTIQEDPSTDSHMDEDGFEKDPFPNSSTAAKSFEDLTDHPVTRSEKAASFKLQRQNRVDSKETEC
# Chain of Matrix metalloproteinase-9 (P14780 whole entry, the tested form may be a part): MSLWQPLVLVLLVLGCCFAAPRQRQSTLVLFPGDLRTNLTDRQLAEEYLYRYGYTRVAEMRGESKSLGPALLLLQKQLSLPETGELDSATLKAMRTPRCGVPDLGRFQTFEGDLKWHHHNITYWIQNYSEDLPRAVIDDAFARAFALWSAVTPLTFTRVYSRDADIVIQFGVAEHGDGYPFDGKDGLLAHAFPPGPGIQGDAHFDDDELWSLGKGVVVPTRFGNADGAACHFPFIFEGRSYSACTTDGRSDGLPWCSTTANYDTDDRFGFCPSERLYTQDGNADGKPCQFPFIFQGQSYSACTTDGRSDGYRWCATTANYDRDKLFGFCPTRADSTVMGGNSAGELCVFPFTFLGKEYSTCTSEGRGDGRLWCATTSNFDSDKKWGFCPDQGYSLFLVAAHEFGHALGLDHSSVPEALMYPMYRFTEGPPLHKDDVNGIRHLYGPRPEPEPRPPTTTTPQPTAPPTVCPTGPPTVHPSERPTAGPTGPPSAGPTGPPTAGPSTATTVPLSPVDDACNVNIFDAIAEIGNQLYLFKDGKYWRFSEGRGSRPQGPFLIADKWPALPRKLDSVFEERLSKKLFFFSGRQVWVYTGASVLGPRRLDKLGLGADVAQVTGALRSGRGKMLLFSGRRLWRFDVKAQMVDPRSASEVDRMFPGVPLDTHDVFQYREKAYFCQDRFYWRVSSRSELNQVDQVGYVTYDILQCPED
IC50 [2] [nM],Structure (SMILES),Ki [1] [nM],Ki [3] [nM],Ki [4] [nM],Ki [5] [nM]
350,O=C(NO)[C@H]1[C@@H](O)[C@H](O)[C@@H](O)CN1S(=O)(=O)c1ccc(Oc2ccccc2)cc1,,,,
450,COc1ccc(S(=O)(=O)N2C[C@@H](O)[C@@H](O)[C@H](O)[C@@H]2C(=O)NO)cc1,,,26,15
340,O=C(NO)[C@H]1[C@@H](O)[C@H](O)[C@H](O)CN1S(=O)(=O)c1ccc(Oc2ccccc2)cc1,,0.35,5.3,6.2

Structure (SMILES),IC50 [2] [nM],Ki [1] [nM],Ki [3] [nM],Ki [4] [nM],Ki [5] [nM]
O=C(NO)[C@H]1[C@@H](O)[C@H](O)[C@H](O)CN1S(=O)(=O)c1ccc(OCc2ccccc2)cc1,84,7.4,2.1,> 850,1.7
O=C(NO)[C@H]1[C@@H](O)[C@H](O)[C@H](O)CN1S(=O)(=O)c1ccc(-c2ccccc2)cc1,21000,47,50,162,21
